# Measured values as given in patent publication US4157392A, “Pharmacologically active substituted 1,2,4-triazines” (Diamond Shamrock Corporation, priority 1978, dated 1979).
# Where two headings read alike, the source gives them in different places.
# Experiments:
# [1] = system: central nervous system activity in mice; assay: Neuropharmacological Profile; type: in vivo, mouse (white male Carworth Farm Strain CF-1)
# Description: The central nervous system activity of certain of the preferred compounds in accordance with the present invention were determined using the following neuropharmacological profile assay procedures.
# White male mice of the Carworth Farm Strain (CF-1) weighing 18-22 grams were used in these determinations. […] Intraperitoneal injections were administered in logarithmic progression and sequentially. The dose levels employed routinely are 10, 30, 100, and 300 mg/kg, using four male mice at each dose level. Since this test was conducted in a sequential manner, the first dose administered was at 300 mg/kg. The mice were injected at this dose level and observed for gross changes produced by the drug, such as behavioral, neurological, autonomic, and toxic effects.
# The animals were observed continuously for one hour and if no signs of pharmacological or toxicological activity were present at the end of the first hour, they were intermittently checked for activity every fifteen minutes thereafter for two consecutive hours. […] Subsequent dose levels below 300 mg/kg were not administered in this case. Alternatively, if demonstrable pharmacological changes occurred within the first three hours after administration of the drug at 300 mg/kg, the subsequent doses were administered and the animals observed for changes in overt behavior. The observation period begins immediately following the injection and the animals are then continuously observed for three hours and intermittently checked thereafter for forty-eight hours. The animals were observed and signs and symptoms of pharmacological activity were recorded continuously until no further symptoms developed and until the symptoms that had appeared were no longer present. […] It was very important that the animals were free to move about for evaluation of spacial orientation, alertness, and spontaneous motor activity. The animals were systematically observed and manipulated to measure the onset, peak effect, duration and character of drug action.
# The major characteristics observed relative to central nervous system activity for the compounds indicated are summarized in the following Table IV.
# [2] = system: carrageenin-induced edema in the hind paw of a rat; assay: Carrageenin Assay (carrageenin-induced edema, hind paw); type: in vivo, rat (male, Long Evans strain); details: 1 h before carrageenin, edema at 3 h, compared to phenylbutazone control values; for inhibition in vivo at 200 mg/kg: 200 mg/kg oral
# Description: The procedure employed is a modification of the method of Winter et al, Proc. Soc. Exptl. Biol. Med. 111:544 (1962). The device used for measurement of the paw volume is an adaptation of the water displacement procedure described by Adamkiewicz et al, Can. J. Biochem. Physiol. 33:332 (1955). Test compounds were administered orally, one hour prior to the intraplantar injection of 0.05 ml. of sterile 1.0 percent solution of carrageenin into the left hind paw of male rats (Long Evans strain) weighing between about 130-200 grams. At peak swelling time (3 hours) the volume of edema was calculated by differential paw volumes.
# Table I sets forth the results obtained (indicated as percent reduction of edema compared to phenylbutazone control values) at the indicated dosages for each of the identified compounds.
# [3] = system: phenylquinone writhing in mice; assay: Phenylquinone Writhing Assay (analgesia); type: in vivo, mouse (Carworth CF1 male mice); details: for responders at 12.5 mg/kg: 12.5 mg/kg oral; for responders at 25 mg/kg: 25 mg/kg oral; for responders at 50 mg/kg: 50 mg/kg oral; for responders at 10 mg/kg: 10 mg/kg oral; for responders at 100 mg/kg / Phenylquinone Writhing Assay (% Control), percent analgesia: 100 mg/kg oral
# Method in brief: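 Male CF1 mice (ten per group) dosed orally in 0.25% methylcellulose, then challenged i.p. with 0.02% phenylquinone at 15, 30, 60 or 120 min post-dose. Mice showing no writhing over 10 min count as protected; percent analgesia = number protected ×10.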
# [4] = system: adjuvant-induced arthritis, hind paw of the rat; assay: Adjuvant-Arthritis Assay; type: in vivo
# yeast induced fever = assay: Antipyretic Assay (yeast induced fever); type: in vivo; details: for temps. at 191/2 hrs. / temps. at 18 hrs. (Test Compounds Administered) / temps. at 0 hr.: 100 mg/kg; for temps. at 191/2 hrs.: 1 1/2 hrs. after administration; for temps. at 18 hrs. (Test Compounds Administered): at time of administration; for temps. at 0 hr.: before yeast fever and compound
# Description: As indicated previously, certain of the compounds of the invention also display excellent antipyretic activity. […] Antipyretic activity was measured utilizing the conventional yeast induced fever assay procedure (15% yeast solution injected at two sites).
# [5] = system: Spontaneously hypertensive rats; assay: SHR Assay (anti-hypertensive); type: in vivo, rat (spontaneously hypertensive); details: dose 100, oral
# Description: Spontaneously hypertensive rats, 12 to 16 weeks of age, were used in this assay. Systolic blood pressures were determined by the tail cuff method, utilizing capacitance transducers for the detection of pressure, an aneroid manometer for measuring pressure, and an oscilloscope for visualizing the disappearance and/or appearance of the pressure pulse. Heart rate was measured by a biotachometer. Groups of five rats having systolic blood pressures of 170 mmHg or greater were chosen and the test compounds administered at the doses indicated below (oral) as a solution or suspension in 0.25% methylcellulose (MC) at a volume of 5 ml/kg. One group served as the control and received the vehicle. Twenty-four hours after dosing, systolic blood pressure and heart rate were recorded. A second dose of compound was administered and blood pressure and heart rate determined at 4 and 24 hours after the second dose.
# [6] = 300,100,30 mg/kg intraperitoneal
# [7] = Rattus norvegicus, read-out: % Reduction of Edema
# [8] = Mus musculus, po, 0.25 h, 15 Min., read-out: Phenylquinone Writhing Assay (% Control), percent analgesia
# [9] = Mus musculus, po, 0.5 h, 30 Min., read-out: Phenylquinone Writhing Assay (% Control), percent analgesia
# [10] = Mus musculus, po, 1 h, 60 Min, read-out: Phenylquinone Writhing Assay (% Control), percent analgesia
compound,measurement,setting,value
"COc1nnc(-c2ccccc2)c(-c2ccccc2)n1 [Example 48, 3-methoxy-5,6-diphenyl-1,2,4-triazine]",CNS Activity,[1]; [6],Muscle Relaxant
same,inhibition in vivo at 200 mg/kg,[2]; [7],17%
"COc1nncc(-c2ccccc2)n1 [Example 2, 3-methoxy-5-phenyl-1,2,4-triazine]",responders at 12.5 mg/kg,[3]; [8],10%
same,responders at 25 mg/kg,[3]; [8],40%
same,responders at 50 mg/kg,[3]; [8],90%
same,responders at 12.5 mg/kg,[3]; [9],30%
same,responders at 25 mg/kg,[3]; [9],60%
same,responders at 50 mg/kg,[3]; [9],80%
same,responders at 12.5 mg/kg,[3]; [10],30%
same,responders at 25 mg/kg,[3]; [10],50%
same,responders at 50 mg/kg,[3]; [10],70%
same,Adjuvant-Arthritis Assay (% Reduction),"[4]; 40 mg/kg oral once daily, Day 3, developing disease",39%
same,Adjuvant-Arthritis Assay (% Reduction),"[4]; 40 mg/kg oral once daily, Day 10, developing disease",23%
same,Adjuvant-Arthritis Assay (% Reduction),"[4]; 40 mg/kg oral once daily, Day 17, developing disease",0%
same,Adjuvant-Arthritis Assay (% Reduction),"[4]; 80 mg/kg oral once daily, Day 3, developing disease",40%
same,Adjuvant-Arthritis Assay (% Reduction),"[4]; 80 mg/kg oral once daily, Day 10, developing disease",18%
same,Adjuvant-Arthritis Assay (% Reduction),"[4]; 80 mg/kg oral once daily, Day 17, developing disease",0%
same,Adjuvant-Arthritis Assay (% Reduction),"[4]; 120 mg/kg oral once daily, Day 3, developing disease",30%
same,Adjuvant-Arthritis Assay (% Reduction),"[4]; 120 mg/kg oral once daily, Day 10, developing disease",13%
same,Adjuvant-Arthritis Assay (% Reduction),"[4]; 120 mg/kg oral once daily, Day 17, developing disease",21%
same,temps. at 191/2 hrs.,yeast induced fever,35.3
same,temps. at 18 hrs. (Test Compounds Administered),yeast induced fever,39.0
same,temps. at 0 hr.,yeast induced fever,38.1
same,antipyretic activity,yeast induced fever; compared to aspirin,comparable in activity to aspirin
same,inhibition in vivo at 200 mg/kg,[2]; [7],86%
"Cc1nnc(NN)nc1C [Example 25, 3-hydrazino-5,6-dimethyl-1,2,4-triazine]",CNS Activity,"[1]; 300,100,30,10 mg/kg intraperitoneal",Antidepressant
same,responders at 10 mg/kg,[3]; [8],20%
same,responders at 10 mg/kg,[3]; [9],10%
same,responders at 12.5 mg/kg,[3]; [9],20%
same,responders at 25 mg/kg,[3]; [9],90%
same,inhibition in vivo at 40 mg/kg,"[2]; Rattus norvegicus, 40 mg/kg oral, read-out: % Reduction of Edema",46%
"CSc1nncc(-c2cccc(C(F)(F)F)c2)n1 [Example 19, 3-methylthio-5-(3'-trifluoromethylphenyl)-1,2,4-triazine]",CNS Activity,"[1]; 300,100,30,10,3 mg/kg intraperitoneal",Sedative
same,responders at 30 mg/kg,"[3]; Mus musculus, po, 0.5 h, 30 mg/kg oral, 30 Min., read-out: Phenylquinone Writhing Assay (% Control), percent analgesia",20%
same,inhibition in vivo at 200 mg/kg,[2]; [7],51%
CN(CCO)c1nncc(-c2ccccc2)n1 [Example 73],CNS Activity,"[1]; 300,100 mg/kg intraperitoneal",Hypnotic
same,responders at 100 mg/kg,[3]; [8],10%
"CCCCOc1nccnn1 [Example 65, 3-n-butoxy-1,2,4-triazine]",CNS Activity,[1]; [6],Antidepressant
same,responders at 50 mg/kg,[3]; [9],10%
"3-Methylhydrazino-5-Phenyl-1,2,4-Triazine [Example 3A]","Phenylquinone Writhing Assay (% Control), percent analgesia",[3]; 15 Min.,60%
same,"Phenylquinone Writhing Assay (% Control), percent analgesia",[3]; 30 Min.,30%
same,"Phenylquinone Writhing Assay (% Control), percent analgesia",[3]; 60 Min,30%
same,Mean Drop (systolic blood pressure),[5]; 4 hr.,0 mm/Hg.
same,Mean Drop (systolic blood pressure),[5]; 24 hr.,49 mm/Hg.
same,Mean Drop (systolic blood pressure),[5]; second 4 hr. column (after second dose),56 mm/Hg.
same,Mean Drop (systolic blood pressure),[5]; second 24 hr column (after second dose),92 mm/Hg.
same,% Reduction of Edema,[2]; 100 mg/kg oral,76%
"C=CCOc1nnc(C)c(C)n1 [Example 11, 3-allyloxy-5,6-dimethyl-1,2,4-triazine]",CNS Activity,"[1]; 300,100 mg/kg intraperitoneal",Hypnotic
same,responders at 100 mg/kg,[3]; [9],30%
same,inhibition in vivo at 200 mg/kg,[2]; [7],63%
"CC(=O)Oc1ccccc1C(=O)O [Aspirin, reference compound]",temps. at 191/2 hrs.,yeast induced fever,37.8
same,temps. at 18 hrs. (Test Compounds Administered),yeast induced fever,38.8
same,temps. at 0 hr.,yeast induced fever,38.0
"COc1nncc(-c2ccc3ccccc3c2)n1 [Example 22, 3-methoxy-5-(2'-naphthyl)-1,2,4-triazine]",responders at 100 mg/kg,[3]; [8],20%
same,responders at 100 mg/kg,[3]; [9],10%
same,responders at 100 mg/kg,[3]; [10],10%
same,inhibition in vivo at 200 mg/kg,[2]; [7],7%
